Tests used:
[1] = test system: human neutrophils and PBMCs, rat neutrophils and PBMCs, human PLB-985 cell line; assay: Extracellular ROS, isoluminol luminescence, PMA or fMLF stimulated cells; type: cell-based; details: PMA or fMLF 30 ng/ml; compounds 120 to 0 microM; FIG. 1-4, 9-12, 14-17
Experimental: Validation was performed by stimulating cells with PMA and fMLF. When treated with the antioxidants, altered level of ROS production from the cells was measured using luminometry. Both intracellular and extracellular effect on ROS on the cells was analyzed using isoluminol (extracellular) and luminol (intracellular when co-administered with SOD and catalase) (Dahlgren et al. “Respiratory burst in human neutrophils”, Journal of Immunological Methods 232 1999; 3-14).
The isoluminol reagent buffer was made of HBSS buffer (with Ca^2+), Isoluminol and HRP.
1) Add 25 microL of antioxidants to assay plate to get proper concentrations in a total reaction volume of 100 micro-L. 2) Add 25 microL of PMA (120 ng/ml) and fMLF (120 ng/ml) to assay plate to get concentration of 30 ng/ml in a total reaction volume of 100 microL. 3) Add 50 microL of cell suspension (2 million cells/ml) to each well. Immediately after addition of cell suspension initiate luminescence measurement; the reaction starts at once when the cells are added to the assay plate. Measurement points are taken at 1-minute intervals for 25 minutes. Data is presented as AUC (Area Under Curve) by a summary of all collected measurements for each well.
FIG. 1: Extracellular ROS analyzed by Isoluminol induced luminescence in human Neutrophils. ROS induced with PMA (30 ng/ml) with 200, 100 or 0 microM NAC. Concentrations of compounds 120, 60, 30 and 0 microM final concentrations.
FIG. 9: Extracellular ROS analyzed by Isoluminol induced luminescence in rat Neutrophils. ROS induced with PMA (30 ng/ml) with 200, 100 or 0 microM NAC. Concentrations of compounds 120, 60, 30 and 0 microM final concentrations.
FIG. 11: Extracellular ROS analyzed by Isoluminol induced luminescence in human PLB-985 cell line. ROS induced with PMA (30 ng/ml) with 200, 100 or 0 microM NAC. Concentrations of compounds 120, 60, 30 and 0 microM final concentrations.

PLB985 cells = assay: Resazurin based in vitro toxicology assay (TOX8); type: cell-based, human; details: PLB985, 3 hours, up to 120 μM
Experimental: The viability of cells treated with the compounds was also analyzed using a Resazurin based in vitro Toxicology Assay Kit (SigmaAldrich TOX8). Resazurin systems measure the metabolic activity of living cell. Resazurin in its oxidized form (blue) is reduced (red) by living cells and the amount of dye conversion is measured fluorometrically or spectrophotometrically indicating the degree of cytotoxicity.
1) 75 micro-l of PLB985 cells (1 million cells/ml) is mixed with 25 micro-l of Compounds 1, 2, 3 and D (480, 120, 15 and 0.48 micro-M) in a 96 well plate in duplicates. 2) 10 micro-L of Resazurin solution is added to each well and the plate is incubated at 37° C. for 3 hours. 3) Spectrophotometrical analysis is performed in plate reader at 600 and 690 nm.
FIG. 18: Cell viability of compounds in human PLB-985 cell line. Concentrations of compounds 120; 60; 30; 3.75; 0.12 and […] final concentrations. Measurement that indicates cell cytotoxicity (In vitro toxicology assay, TOX-8). The bars show increased level of cytotoxicity (analysis of absorbance of 600 nm substracted with absorbance 690 nm).

human neutrophils = assay: Luminol enhanced chemiluminescence, total ROS production in neutrophils; type: cell-based
Text: (§1) We investigated the capacity of the material to quench ROS produced by freshly isolated human neutrophils or THP-1 cells (human acute monocytic leukemia cell line) stimulated with PMA (Phorbol Myristate Acetate). The antioxidant capacity of selenide 1 was again compared to those of Trolox, a water soluble derivative of vitamin E, which is commonly used in biological and biochemical applications to reduce oxidative stress or damage.
Neutrophils were isolated from heparinized blood of apparently healthy blood donors (Academic Hospital, Uppsala, Sweden) following a routine dextran sedimentation method essentially as described by Halansson and Venge (Scandinavian Journal of Immunology 1980, 11, 271-282). To each of three test tubes containing 5 ml heparinized blood, dextran (T500, Pharmacia, Uppsala, Sweden) was added (final concentration 1%) and the sedimentation was allowed to proceed for 30 min at room temperature. […] Finally, the pellet was resuspended in Gey's buffer and the average content of neutrophils (approximately 90%) was calculated using Türks staining and hemocytometer method. […]
The generation of oxygen free radicals over time from neutrophils was monitored for 40 minutes in 24 well white optiplates (Greiner) using a Wallac Victor […] in the luminescence mode. […]

THP-1 cells = assay: Chemiluminescence (Diogenes), ROS production in PMA stimulated THP-1 cells; type: cell-based, human
Text: as §1
The generation of oxygen free radicals over time from macrophages (THP-1) was monitored for 180 minutes in 96-well white optiplates (Greiner) using a using a TECAN reader and Diogenes chemiluminescence kit (National Diagnostics). Approximately 200 000 THP-1 cells diluted in HBSS containing different concentrations of the antioxidants 1 and Trolox were added per well to a 96 well plate together with the Diogenes reagent 20 v/% (following the manufacturers recommendations) and 40 micro-M Phorbol Myristate Acetate (PMA). Luminescence intensity was read every 6 min. The measurements were commonly performed on quadruplicate samples

[2] = two-phase model, N-acetylcysteine in the aqueous phase; cited from earlier work

CC1Cc2cc(O)ccc2[Se]1 (stereo not shown) [Compound 1]
antioxidative effect on extracellular ROS [1]: antioxidative effect on extra cellular ROS
cytotoxicity (PLB985 cells): no signs of cytotoxicity
effect on ROS production in neutrophils (human neutrophils; 20, 40, 60 micro-M, FIG. 22): clear, dose dependent, quenching/inhibiting effect
quenching of ROS from neutrophils compared with Trolox (human neutrophils; 20 micro-M each): considerably more effective than Trolox
effect on ROS production in THP-1 (THP-1 cells; 1, 10 and 20 micro-M, FIG. 24): clear, dose dependent, quenching/inhibiting effect
quenching of ROS from THP-1 compared with Trolox (THP-1 cells; 20 micro-M each): considerably more effective than Trolox
Inhibited Rate of Linoleic Acid Peroxidation (Rinh) [2]: 69 µM/h

Source: US20120258944A1, “ANTIOXIDANTS FOR USE IN THERAPY” (priority 2009, published 2012)
